According to ChEMBL document CHEMBL1135807, “2,5'-Disubstituted adenosine derivatives: evaluation of selectivity and efficacy for the adenosine A(1), A(2A), and A(3) receptor” (J Med Chem, 2002):

What was measured:
Adenosine receptor A2a [1] = molecular target: Adenosine receptor A2a (Rattus norvegicus, UniProt P30543)
Description: Binding affinity at Adenosine A2A receptor in rat striatal membrane by [3H]ZM-241385 displacement.

Adenosine receptor A1 = molecular target: T1, Adenosine receptor A1 (Rattus norvegicus, UniProt P25099); assay: Ability to displace [3H]DPCPX from Adenosine A1 receptor in rat cortical membrane; format: cell membranes
T1 sequence (P25099 whole entry): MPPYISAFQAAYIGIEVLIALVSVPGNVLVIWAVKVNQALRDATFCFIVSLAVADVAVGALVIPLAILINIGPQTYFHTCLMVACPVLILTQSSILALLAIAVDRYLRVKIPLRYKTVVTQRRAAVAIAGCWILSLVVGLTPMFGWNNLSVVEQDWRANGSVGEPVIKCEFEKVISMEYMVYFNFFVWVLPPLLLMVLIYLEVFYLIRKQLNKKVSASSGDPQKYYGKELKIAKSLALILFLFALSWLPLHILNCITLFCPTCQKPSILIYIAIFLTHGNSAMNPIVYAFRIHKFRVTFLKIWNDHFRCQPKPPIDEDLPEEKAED

[2] = molecular target: T2, Adenosine receptor A1 (Rattus norvegicus) (UniProt P25099); assay: Ability to displace [3H]DPCPX from Adenosine A1 receptor in rat cortical membrane at 10e-5 M; format: cell membranes
T2 sequence (whole entry): T1 sequence (P25099 whole entry)

[3] = molecular target: T3, Adenosine receptor A3 (Homo sapiens) (UniProt P0DMS8); assay: % inhibition of forskolin induced (10 uM) cAMP production compared to C1-IB-MECA through Adenosine A3 receptor expressed in CHO cells at 30 uM; format: functional, cell-based
T3 sequence (whole entry): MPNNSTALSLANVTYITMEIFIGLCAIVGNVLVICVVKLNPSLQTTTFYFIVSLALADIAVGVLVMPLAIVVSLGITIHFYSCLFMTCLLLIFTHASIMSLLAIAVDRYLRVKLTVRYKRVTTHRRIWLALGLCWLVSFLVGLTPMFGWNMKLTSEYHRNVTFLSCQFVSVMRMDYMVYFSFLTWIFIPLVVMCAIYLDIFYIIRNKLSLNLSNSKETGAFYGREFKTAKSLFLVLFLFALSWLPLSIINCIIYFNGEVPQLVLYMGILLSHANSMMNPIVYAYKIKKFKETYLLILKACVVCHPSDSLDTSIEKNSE

Adenosine receptor A2a [4] = molecular target: Adenosine receptor A2a (Homo sapiens, UniProt P29274); assay: G-protein activation in human Adenosine A2A receptor expressed in CHO cells using cAMP assay; format: functional, cell-based
Chain of Adenosine receptor A2a (Homo sapiens, UniProt P29274) (P29274 whole entry): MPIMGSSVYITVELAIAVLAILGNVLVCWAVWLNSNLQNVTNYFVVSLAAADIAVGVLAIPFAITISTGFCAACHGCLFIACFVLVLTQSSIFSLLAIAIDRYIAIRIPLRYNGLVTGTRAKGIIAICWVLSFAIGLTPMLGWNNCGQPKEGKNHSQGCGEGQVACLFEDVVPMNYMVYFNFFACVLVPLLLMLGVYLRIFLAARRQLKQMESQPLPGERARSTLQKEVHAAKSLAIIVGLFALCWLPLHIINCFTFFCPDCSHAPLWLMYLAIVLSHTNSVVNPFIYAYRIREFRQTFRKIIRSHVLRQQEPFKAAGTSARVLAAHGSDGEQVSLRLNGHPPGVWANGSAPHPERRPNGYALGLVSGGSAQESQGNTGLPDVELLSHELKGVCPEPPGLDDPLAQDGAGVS

Adenosine receptor A3 = molecular target: T4, Adenosine receptor A3 (Homo sapiens, UniProt P0DMS8); assay: biochemical
T4 sequence (P0DMS8 whole entry): T3 sequence (whole entry)
Description: Binding affinity at human Adenosine A3 receptor expressed in HEK 293 cells by [125I]-AB MECA displacement.

[5] = molecular target: T2, Adenosine receptor A1 (Rattus norvegicus); assay: Displacement of [3H]DPCPX from Adenosine A1 receptor in rat cortical membrane at 10e-5 M; format: cell membranes
[6] = molecular target: T3, Adenosine receptor A3 (Homo sapiens); assay: Percent inhibition of forskolin induced (10 uM) cAMP production compared to C1-IB-MECA through Adenosine A3 receptor expressed in CHO cells at 100 uM; format: functional, cell-based

Chain of Adenosine receptor A2a (Rattus norvegicus, UniProt P30543) (P30543 whole entry): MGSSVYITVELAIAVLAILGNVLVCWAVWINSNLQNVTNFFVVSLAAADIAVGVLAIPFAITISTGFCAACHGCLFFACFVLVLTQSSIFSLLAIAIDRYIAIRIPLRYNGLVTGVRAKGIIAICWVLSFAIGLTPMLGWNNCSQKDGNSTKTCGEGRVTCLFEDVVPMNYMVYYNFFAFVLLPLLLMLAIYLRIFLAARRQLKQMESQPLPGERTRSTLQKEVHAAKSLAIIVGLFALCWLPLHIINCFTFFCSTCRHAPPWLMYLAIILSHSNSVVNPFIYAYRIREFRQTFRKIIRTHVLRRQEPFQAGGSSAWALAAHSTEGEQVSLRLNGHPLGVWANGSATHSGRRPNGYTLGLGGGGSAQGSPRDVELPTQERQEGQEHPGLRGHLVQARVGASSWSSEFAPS

A Ki (Adenosine receptor A2a [1]) of 1200 nM and a Ki (Adenosine receptor A1) of 386 nM were found for `CCSC[C@H]1O[C@@H](n2cnc3c(N)nc(I)nc32)[C@H](O)[C@@H]1O` in this work.
A Displacement [2] of 18.9%, an Emax [3] of 41% and an EC50 (Adenosine receptor A2a [4]) of 5000 nM were found for `CSC[C@H]1O[C@@H](n2cnc3c(N)nc(N/N=C/CC(C)C)nc32)[C@H](O)[C@@H]1O` in this work. It also gave a Ki (Adenosine receptor A2a [1]) of 220 nM and a Ki (Adenosine receptor A3) of 253 nM.
A Displacement [2] of 36.1% was found for `Nc1nc(I)nc2c1ncn2[C@@H]1O[C@H](CO)[C@@H](O)[C@H]1O` in this work.
An Emax [3] of 26%, an EC50 (Adenosine receptor A2a [4]) of 10400 nM and a Ki (Adenosine receptor A2a [1]) of 1800 nM were found for `CC(C)C/C=N/Nc1nc(N)c2ncn([C@@H]3O[C@H](CSC(C)C)[C@@H](O)[C@H]3O)c2n1` in this work. For the same compound, the Ki (Adenosine receptor A3) was 409 nM and the Displacement [5] was 13%.
An EC50 (Adenosine receptor A2a [4]) of 800 nM, a Ki (Adenosine receptor A2a [1]) of 170 nM and a Displacement [5] of 46.5% were found for `CCCCC#Cc1nc(N)c2ncn([C@@H]3O[C@H](CSCCC)[C@@H](O)[C@H]3O)c2n1` in this work.
A Displacement [2] of 22%, an EC50 (Adenosine receptor A2a [4]) of 12900 nM and an Emax [6] of 16% were found for `CCCSC[C@H]1O[C@@H](n2cnc3c(N)nc(N/N=C/CC(C)C)nc32)[C@H](O)[C@@H]1O` in this work. For the same compound, the Ki (Adenosine receptor A2a [1]) was 1500 nM and the Ki (Adenosine receptor A3) was 697 nM.
An EC50 (Adenosine receptor A2a [4]) of 3600 nM, a Ki (Adenosine receptor A2a [1]) of 220 nM and a Ki (Adenosine receptor A1) of 1270 nM were found for `CCCCC#Cc1nc(N)c2ncn([C@@H]3O[C@H](CSC(C)C)[C@@H](O)[C@H]3O)c2n1` in this work.
A Ki (Adenosine receptor A2a [1]) of 3900 nM was found for `CSC[C@H]1O[C@@H](n2cnc3c(N)nc(I)nc32)[C@H](O)[C@@H]1O` in this work.
An EC50 (Adenosine receptor A2a [4]) of 700 nM and a Ki (Adenosine receptor A2a [1]) of 60 nM were found for `CCCCC#Cc1nc(N)c2ncn([C@@H]3O[C@H](CSC)[C@@H](O)[C@H]3O)c2n1` in this work.
A Displacement [2] of 21.2%, an EC50 (Adenosine receptor A2a [4]) of 7500 nM and an Emax [6] of 7% were found for `CCSC[C@H]1O[C@@H](n2cnc3c(N)nc(N/N=C/CC(C)C)nc32)[C@H](O)[C@@H]1O` in this work. For the same compound, the Ki (Adenosine receptor A2a [1]) was 500 nM and the Ki (Adenosine receptor A3) was 814 nM.
A Displacement [2] of 18.9%, an EC50 (Adenosine receptor A2a [4]) of 1100 nM and a Ki (Adenosine receptor A2a [1]) of 20 nM were found for `CC(C)C/C=N/Nc1nc(N)c2ncn([C@@H]3O[C@H](CO)[C@@H](O)[C@H]3O)c2n1` in this work. The Ki (Adenosine receptor A3) was 38.3 nM.
A Ki (Adenosine receptor A2a [1]) of 440 nM and a Ki (Adenosine receptor A1) of 1050 nM were found for `CCCSC[C@H]1O[C@@H](n2cnc3c(N)nc(I)nc32)[C@H](O)[C@@H]1O` in this work.
A Displacement [2] of 56.2% and a Ki (Adenosine receptor A2a [1]) of 820 nM were found for `CC(C)SC[C@H]1O[C@@H](n2cnc3c(N)nc(I)nc32)[C@H](O)[C@@H]1O` in this work.
An EC50 (Adenosine receptor A2a [4]) of 500 nM, a Ki (Adenosine receptor A2a [1]) of 110 nM and a Ki (Adenosine receptor A1) of 2180 nM were found for `CCCCC#Cc1nc(N)c2ncn([C@@H]3O[C@H](CSCC)[C@@H](O)[C@H]3O)c2n1` in this work.
